{"source": "patent US20100130599A1", "about": "(priority 2008, published 2010)", "key": {"[1]": {"biological_target": "T1, CYP2C9*8 (Homo sapiens, UniProt P11712, R150H)", "settings": "cited from earlier work"}, "[2]": {"biological_target": "T1, CYP2C9*8", "parameters": "host or cells: human subjects carrying the CYP2C9*8 allele (in vivo phenotyping)", "settings": "CYP2C9*8 allele, cited from earlier work"}, "[3]": {"text": "A total of 226 African American patients having demographic and clinical parameters as depicted in Table 1 were studied.\nPatients were enrolled from the pharmacist-managed anticoagulation clinics at the University of Illinois Medical Center at Chicago and at the University of Florida in Gainesville. […] Aquilante, C. […] Pharmacogenomics 8, 1535-44 (2007). Patients with a history of liver dysfunction or serum transaminase levels greater than 3 times the upper limit of normal were excluded.\nAfter obtaining written informed consent and authorization for medical record review, a buccal cell sample was collected for genetic analysis, as previously described. Andrisin, T. E., Humma, L. M. & Johnson, J. A. Collection of genomic DNA by the noninvasive mouthwash method for use in pharmacogenetic studies. Pharmacotherapy 22, 954-60 (2002). Demographic, clinical, and social history were assessed through patient interview and review of the medical record. This study was approved by the Institutional Review Board at each institution.\nGenomic DNA was isolated from buccal cells using a commercially available kit (PureGene,® Qiagen, Valencia, Calif.) according to kit manufacturer instructions. The CYP2C9 R144C (*2), […] (*3) and D360E (*5) alleles and VKORC1 −1639G>A genotype were determined as previously described. Aquilante, C. […] Clin Pharmacol Ther 79, 291-302 (2006); Hruska, M. W., Frye, R. F. & Langaee, T. Y. Pyrosequencing method for genotyping cytochrome P450 CYP2C8 and CYP2C9 enzymes. Clin Chem 50, 2392-5 (2004). The VKORC1 −4451A>C, 497G>T, and 3730A>G genotypes, and APOE 112C>T and 158C>T genotypes were determined by PCR and pyrosequencing. PCR and sequencing primers used were per Table 6.\nPrior to determination of additional genotypes, genomic DNA was amplified by the whole genome amplification (WGA) technique, using the REPLI-g midi kit (Qiagen). Dean, F. B. et al. Comprehensive human genome amplification using multiple displacement amplification. Proc Natl Acad Sci USA 99, 5261-6 (2002) The fidelity of amplification was verified by comparing genotypes for CYP2C9*2, *3, *5 and VKORC1 −1639G>A determined before and after WGA. […] Reed, M. R. & Coty, W. A. in Microarrays: Preparation, Detection Methods, Data Analysis, and Applications (eds. Dill, K., Liu, R. & Grodzinski, P.) 247-60 (Springer-Verlag/Kluwer, 2009). The CYP2C9*8 genotype was determined by bi-directional DNA sequencing at Agencourt Biosciences after uniplex PCR amplification performed by Osmetech Molecular Diagnostics.\nData are expressed as numbers (percentages), mean±SD, or median (inter-quartile range). Height and weight were used to calculate body surface area (BSA). […] Hardy Weinberg Equilibrium (HWE) assumption was tested by χ^2 analysis. […] Dickmann, L. J. et al. Identification and functional characterization of a new CYP2C9 variant (CYP2C9*5) expressed among African Americans. Mol Pharmacol 60, 382-7 (2001); Allabi, A. C., Gala, J. L. & Horsmans, Y. CYP2C9, CYP2C19, ABCB1 (MDR1) genetic polymorphisms and phenytoin metabolism in a Black Beninese population. Pharmacogenet Genomics 15, 779-86 (2005); Blaisdell, J. et al. Discovery of new potentially defective alleles of human CYP2C9. Pharmacogenetics 14, 527-37 (2004) Carriers of a variant CYP2C9*8 allele were initially analyzed separately because of uncertainty regarding the functional effects of this allele."}}, "note": "Where two headings read alike, the source gives them in different places."}
{"molecule": "CCCCc1nc(Cl)c(CO)n1Cc1ccc(-c2ccccc2-c2nnn[nH]2)cc1", "note": "[Losartran]", "values": [{"measurement": "effect of *8 on in vivo metabolism", "setting": "[1]", "result": "little effect"}]}
{"molecule": "O=C1NC(=O)C(c2ccccc2)(c2ccccc2)N1", "note": "[phenytoin]", "values": [{"measurement": "urinary excretion of phenytoin metabolite", "setting": "[2]; clinical study", "result": "reduced urinary excretion"}, {"measurement": "effect of *8 on in vivo metabolism", "setting": "[2]; in vivo", "result": "decreases in vivo metabolism"}]}
{"molecule": "CC(=O)CC(c1ccccc1)c1c(O)c2ccccc2oc1=O", "note": "(stereo not drawn) [warfarin]", "values": [{"measurement": "Median (IQR) dose", "setting": "[3]; APOE ε2/ε2, n=4", "result": "35.5 (34.3-38.9) mg/week"}, {"measurement": "Median (IQR) dose", "setting": "[3]; APOE ε2/ε3, n=36", "result": "40.0 (30.0-49.7) mg/week"}, {"measurement": "Median (IQR) dose", "setting": "[3]; APOE ε2/ε4, n=6", "result": "61.3 (38.4-70.0) mg/week"}, {"measurement": "Median (IQR) dose", "setting": "[3]; APOE ε3/ε3, n=102", "result": "40.0 (32.1-52.5) mg/week"}, {"measurement": "Median (IQR) dose", "setting": "[3]; APOE ε3/ε4, n=60", "result": "43.8 (32.4-56.3) mg/week"}, {"measurement": "Median (IQR) dose", "setting": "[3]; APOE ε4/ε4, n=9", "result": "45.0 (40.0-52.5) mg/week"}, {"measurement": "warfarin dose, median (IQR)", "setting": "[3]; APOE ε4 carriers", "result": "45.0 (33.1-56.3) mg/week"}, {"measurement": "warfarin dose, median (IQR)", "setting": "[3]; APOE ε4 homozygotes", "result": "45.0 (40.0-52.5) mg/week"}, {"measurement": "Median (IQR) dose", "setting": "[3]; CYP2C9 *1/*1, n=171", "result": "42.5 (35.0-56.3) mg/week"}, {"measurement": "Median (IQR) dose", "setting": "[3]; CYP2C9 *1/*8 or *8/*8, n=24", "result": "34.4 (29.5-47.3) mg/week"}, {"measurement": "Median (IQR) dose", "setting": "[3]; CYP2C9 *2, *3, *5, *6, or *11 allele, n=28", "result": "33.1 (28.0-40.0) mg/week"}, {"measurement": "Median (IQR) dose", "setting": "[3]; CYP4F2 V433M M/M, n=3", "result": "37.5 (28.8-56.3) mg/week"}, {"measurement": "Median (IQR) dose", "setting": "[3]; CYP4F2 V433M V/M, n=26", "result": "40.0 (35.3-51.9) mg/week"}, {"measurement": "Median (IQR) dose", "setting": "[3]; CYP4F2 V433M V/V, n=194", "result": "41.6 (32.5-55.0) mg/week"}, {"measurement": "Median (IQR) dose", "setting": "[3]; VKORC1 497T > G GG, n=1", "result": "36.0 — mg/week"}, {"measurement": "Median (IQR) dose", "setting": "[3]; VKORC1 497T > G TG, n=16", "result": "35.0 (27.5-36.3) mg/week"}, {"measurement": "Median (IQR) dose", "setting": "[3]; VKORC1 497T > G TT, n=208", "result": "42.0 (32.5-56.1) mg/week"}, {"measurement": "Median (IQR) dose", "setting": "[3]; VKORC1 −1639G > A GA, n=33", "result": "35.0 (27.5-42.5) mg/week"}, {"measurement": "Median (IQR) dose", "setting": "[3]; VKORC1 −4451C > A AA, n=3", "result": "28.0 (26.5-30.3) mg/week"}, {"measurement": "Median (IQR) dose", "setting": "[3]; VKORC1 −4451C > A CA, n=22", "result": "42.5 (31.0-55.6) mg/week"}, {"measurement": "Median (IQR) dose", "setting": "[3]; VKORC1 −4451C > A CC, n=200", "result": "40.0 (32.5-55.0) mg/week"}, {"measurement": "Median (IQR) dose", "setting": "[3]; VKORC1.3730A > G AA, n=45", "result": "42.0 (32.5-55.0) mg/week"}, {"measurement": "Median (IQR) dose", "setting": "[3]; VKORC1.3730A > G GA, n=121", "result": "42.0 (34.0-56.3) mg/week"}, {"measurement": "Median (IQR) dose", "setting": "[3]; VKORC1.3730A > G GG, n=60", "result": "37.5 (30.0-47.5) mg/week"}, {"measurement": "Average INR", "setting": "[3]; all patients (n = 226) on stable warfarin dose, mean ± SD", "result": "2.5 ± 0.3"}, {"measurement": "Therapeutic warfarin dose", "setting": "[3]; all patients (n = 226), median (IQR)", "result": "40.0 (32.5-55.0) mg/week"}, {"measurement": "warfarin dose, median (IQR)", "setting": "[3]; individuals with a CYP2C9*5, *6, *8, or *11 allele, n=40", "result": 35.0, "unit": "mg/wk"}, {"measurement": "warfarin dose, median (IQR)", "setting": "[3]; non-c4 homozygotes", "result": "40.0 (32.0-55.0) mg/week"}, {"measurement": "warfarin dose, median (IQR)", "setting": "[3]; non-ε4 carriers", "result": "40.0 (32.0-52.5) mg/week"}, {"measurement": "median daily warfarin dose", "setting": "[3]; study population, median (range)", "result": 5.7, "unit": "mg"}]}
